Measured values taken from patent US5854280A, “Antifungal sordaridin derivatives” (Glaxo Wellcome S.A., priority 1994, dated 1998).
Converted amounts (≈) assume the structure as drawn.

What was measured:
Assay in all cases: in vitro antifungal MIC, two-fold serial dilution
C. glabrata 2375E = assay type: cell-based, Candida glabrata
Method: (§1) The in vitro evaluation of the anti-fungal activity of compounds of the invention was performed on liquid or solid medium by the anti-fungal two-fold serial dilution technique of determining the minimum inhibitory concentration (MIC) of anti-fungal agent that inhibited development of growth after 24 to 48 hours of incubation at 37° C. In practice, a series of agar plates or broth microdilution panels containing two-fold dilutions of anti-fungal agent tested were inoculated with a standard culture of a clinically relevant pathogen, for example, Candida albicans. The agar plates or broth microdulution panels were then examined for the presence or absence of growth of the fungus and the appropriate MIC values were noted.
(§2) Compounds of formula (I) have been tested for anti fungal activity in a standard in vitro screen and the minimum inhibiting concentration (MIC; μg/ml) determined for each compound against a variety of clinically relevant pathogens.

C. glabrata 2376E = assay type: cell-based, Candida glabrata
Method: as §1, §2

[1] = tested on: C. psuedotropicalis 2371E; assay type: cell-based, Candida pseudotropicalis
Method: as §1, §2

C. tropicalis 2808E = assay type: cell-based, Candida tropicalis
Method: as §1, §2

C. neoformans 2867E = assay type: cell-based, Cryptococcus neoformans
Method: as §1, §2

C. albicans 4711 = assay type: cell-based, Candida albicans
Method: as §1, §2

C. aibicans 2402E = assay type: cell-based, Candida albicans
Method: as §1, §2

C. albicans 2005E = assay type: cell-based, Candida albicans
Method: as §1, §2

C. albicans 1208E = assay type: cell-based, Candida albicans
Method: as §1, §2

For `CC(C)C1=CC2CC3(C=O)C4CCC(C)C4CC2(COC2CC4C(C)COC4C(C)O2)C13C(=O)[O-].[Na+]` [Example 20, [1R-(1α,3aβ,4β,4aβ,7β,7aα,8aβ)]8a-[[1S,4R,7R,9R]-2,8-Dioxa-4,9-dimethyl-cis-bicyclo[3.4.0]-7-yl-oxy-methyl]-4-formyl-4,4a,5,6,7,7a,8,8a-octahydro-7-methyl-3-(1-methylethyl)-1,4-methano-s-indacene-3a(1H)-carboxylic acid, sodium salt], the “MIC (minimum inhibiting concentration)” value (C. glabrata 2375E) was 0.500 µg/mL, the “MIC (minimum inhibiting concentration)” value (C. glabrata 2376E) was 0.500 µg/mL and the “MIC (minimum inhibiting concentration)” value [1] was 0.004 µg/mL. For the same compound, the “MIC (minimum inhibiting concentration)” value (C. tropicalis 2808E) was 0.008 µg/mL, the “MIC (minimum inhibiting concentration)” value (C. neoformans 2867E) was 0.250 µg/mL and the “MIC (minimum inhibiting concentration)” value (C. albicans 4711) was at most 0.001 µg/mL. For the same compound, the “MIC (minimum inhibiting concentration)” value (C. aibicans 2402E) was at most 0.001 µg/mL, the “MIC (minimum inhibiting concentration)” value (C. albicans 2005E) was at most 0.001 µg/mL and the “MIC (minimum inhibiting concentration)” value (C. albicans 1208E) was at most 0.001 µg/mL.

For `CC(C)C1=CC2CC3(C=O)C4CCC(C)C4CC2(COC2CC4OC(C)(C)OC4C(C)O2)C13C(=O)O` [Example 6, [1R-(1α,3aβ,4β,4aβ,7β,7aα,8aβ)]8a-[(2,6-Dideoxy-3,4-O-isopropylidene-β-D-allopyranosyloxy)methyl]-4-formyl-4,4a,5,6,7,7a,8,8a-octahydro-7-methyl-3-(1-methylethyl)-4-methano-s-indacene-3a(1H)-carboxylic acid], the “MIC (minimum inhibiting concentration)” value (C. glabrata 2375E) was 31.00 µg/mL (≈ 61.7 µM), the “MIC (minimum inhibiting concentration)” value (C. glabrata 2376E) was 31.00 µg/mL (≈ 61.7 µM) and the “MIC (minimum inhibiting concentration)” value [1] was 0.004 µg/mL (≈ 0.00796 µM). The “MIC (minimum inhibiting concentration)” value (C. tropicalis 2808E) was 0.120 µg/mL (≈ 0.239 µM), the “MIC (minimum inhibiting concentration)” value (C. neoformans 2867E) was 8.00 µg/mL (≈ 15.9 µM) and the “MIC (minimum inhibiting concentration)” value (C. albicans 4711) was 0.004 µg/mL (≈ 0.00796 µM). The “MIC (minimum inhibiting concentration)” value (C. aibicans 2402E) was 0.008 µg/mL (≈ 0.0159 µM), the “MIC (minimum inhibiting concentration)” value (C. albicans 2005E) was 0.001 µg/mL (≈ 0.00199 µM) and the “MIC (minimum inhibiting concentration)” value (C. albicans 1208E) was 0.008 µg/mL (≈ 0.0159 µM).

For `CC(C)C(=O)OC1C(C)OC(OCC23CC4C(C)CCC4C4(C=O)CC2C=C(C(C)C)C43C(=O)O)C2OC12` [Example 59, [1R-(1α,3aβ,4β,4aβ,7β,7aα,8aβ)]8a-[(2,3-Anhydro-6-deoxy-4-O-(1-methylethyl)carbonyl-β-D-mannopyranosyloxy)methyl]-4-formyl-4,4a,5,6,7,7a,8,8a-octahydro-7-methyl-3-(1-methylethyl)-1,4-methano-s-indacene-3a(1H)-carboxylic acid], the “MIC (minimum inhibiting concentration)” value (C. glabrata 2375E) was 16.0 µg/mL (≈ 30.2 µM), the “MIC (minimum inhibiting concentration)” value (C. glabrata 2376E) was 16.0 µg/mL (≈ 30.2 µM) and the “MIC (minimum inhibiting concentration)” value [1] was 0.015 µg/mL (≈ 0.0283 µM). The “MIC (minimum inhibiting concentration)” value (C. tropicalis 2808E) was 0.015 µg/mL (≈ 0.0283 µM), the “MIC (minimum inhibiting concentration)” value (C. neoformans 2867E) was 1.00 µg/mL (≈ 1.88 µM) and the “MIC (minimum inhibiting concentration)” value (C. albicans 4711) was 0.002 µg/mL (≈ 0.00377 µM). The “MIC (minimum inhibiting concentration)” value (C. aibicans 2402E) was 0.008 µg/mL (≈ 0.0151 µM), the “MIC (minimum inhibiting concentration)” value (C. albicans 2005E) was at most 0.001 µg/mL and the “MIC (minimum inhibiting concentration)” value (C. albicans 1208E) was 0.015 µg/mL (≈ 0.0283 µM).

For `C=CCOC1C(C)OC(OCC23CC4C(C)CCC4C4(C=O)CC2C=C(C(C)C)C43C(=O)O)C2OC12` [Example 68, [1R-(1α,3aβ,4β,4aβ,7β,7aβ,8aβ)]8a-[(4-O-Allyl,2,3-anhydro,6deoxy-β-D-mannopyranosyl)oxy-methyl]-4-formyl-4,4a5,6,7,7a8,8a-octahydro-7-methyl-3-(1-methylethyl)-1,4-methano-s-indacene-3a(1H)-carboxylic acid], the “MIC (minimum inhibiting concentration)” value (C. glabrata 2375E) was 31.00 µg/mL (≈ 61.9 µM), the “MIC (minimum inhibiting concentration)” value (C. glabrata 2376E) was 31.00 µg/mL (≈ 61.9 µM) and the “MIC (minimum inhibiting concentration)” value [1] was 0.015 µg/mL (≈ 0.03 µM). For the same compound, the “MIC (minimum inhibiting concentration)” value (C. tropicalis 2808E) was 0.250 µg/mL (≈ 0.499 µM), the “MIC (minimum inhibiting concentration)” value (C. neoformans 2867E) was 1.00 µg/mL (≈ 2 µM) and the “MIC (minimum inhibiting concentration)” value (C. albicans 4711) was 0.030 µg/mL (≈ 0.0599 µM). For the same compound, the “MIC (minimum inhibiting concentration)” value (C. aibicans 2402E) was 0.002 µg/mL (≈ 0.00399 µM), the “MIC (minimum inhibiting concentration)” value (C. albicans 2005E) was 0.060 µg/mL (≈ 0.12 µM) and the “MIC (minimum inhibiting concentration)” value (C. albicans 1208E) was 0.060 µg/mL (≈ 0.12 µM).

For `CC(C)C1=CC2CC3(C=O)C4CCC(C)C4CC2(COC2CC4=CCOC4C(C)O2)C13C(=O)O` [Example 43, [1R-(1α,3aβ,4β,4aβ,7β,7aα,8aβ)]8a-[(1S,7R,9R)-2,8-Dioxa-9-methyl-bicyclo[3,4,0]-non-4-ene-7-yl-oxymethyl]-4-formyl-4,4a,5,6,7,7a,8,8a-octahydro-7-methyl-3-(1-methylethyl)-1,4-methano-s-indacene-3a(1H)-carboxylic acid], the “MIC (minimum inhibiting concentration)” value (C. glabrata 2375E) was 4.00 µg/mL (≈ 8.5 µM), the “MIC (minimum inhibiting concentration)” value (C. glabrata 2376E) was 4.00 µg/mL (≈ 8.5 µM) and the “MIC (minimum inhibiting concentration)” value [1] was under 0.001 µg/mL. The “MIC (minimum inhibiting concentration)” value (C. tropicalis 2808E) was 0.500 µg/mL (≈ 1.06 µM), the “MIC (minimum inhibiting concentration)” value (C. neoformans 2867E) was 2.00 µg/mL (≈ 4.25 µM) and the “MIC (minimum inhibiting concentration)” value (C. albicans 4711) was 0.001 µg/mL (≈ 0.00212 µM). For the same compound, the “MIC (minimum inhibiting concentration)” value (C. aibicans 2402E) was 0.001 µg/mL (≈ 0.00212 µM), the “MIC (minimum inhibiting concentration)” value (C. albicans 2005E) was 0.001 µg/mL (≈ 0.00212 µM) and the “MIC (minimum inhibiting concentration)” value (C. albicans 1208E) was 0.001 µg/mL (≈ 0.00212 µM).
